Results reported in US20020099050A1, “Drugs that enhance synaptic responses mediated by AMPA receptors” (priority 1993, published 2002).
pEC50: −log10 of the molar value.

Columns and labels:
AMPA receptor [1] = settings: cited from earlier work
[2] = rat, in vivo, ip
Text: To test the ability of invention compounds to pass the blood-brain barrier, Invention Compound II was labelled with carbon-11.
Radiolabelled Invention Compound II (see the table above) is synthesized by the following scheme (wherein the numbers in parenthesis refer to the quantity of reagent used, in millimoles): [drawing 31]
wherein Ar is aryl (such as methylenedioxybenzene), Im is imidazole (thus, ImHCl is imidazole hydrochloride), and R is an alkyl or alkylene radical (so that R2NH is, for example, piperidine). ^11C-labelled CO2 is produced by cyclotron irradiation and subsequently used in the above-described synthetic scheme. The time to complete the synthesis is about […] (2 times the half-life of carbon-11). After purification of [^11C]II on C18 Sep Pak, 260 μCi was diluted with 20 mg of nonradioactive II as carrier in a 1-ml solution of 23% propylene glycol and 10% ethanol in physiologically-buffered saline in order to simulate the dosage of 100 mg/Kg that was used in behavioral studies. The final 1 ml of solution was administered to a 200 g rat under halothane anesthesia (1.4-1.7% in oxygen) by intraperitoneal (i.p.) injection.
Biodistribution of the radiotracer in the body of the rat was monitored by a positron camera (Scanditronix PC2048-15B) and the time-activity curves were constructed using a Vax 3500 (Digital Equipment Corporation) and shown in FIG. 5.

AMPA receptors [3] = target: T1, AMPA receptors; test: field EPSPs in field CA1 of in vitro slices of rat hippocampus; format: cell-based; settings: for pEC50: estimated from log dose/response curves, maximal response of 85% increase assumed where limited solubility prevented a maximum, read-out: EC50 (percent increase in field EPSP amplitude)
T1 construct: EC50 (percent increase in field EPSP amplitude); other: estimated from log dose/response curves; maximal response of 85; effect on field EPSP amplitude and duration; other: 1.5 mM, 15 minute infusion; enhancement of the area of the field EPSP; other: 100 μM; mean and S.D. of 4
Procedure: The physiological effects of invention compounds can be tested in vitro with slices of rat hippocampus as follows. Excitatory responses (field EPSPs) are measured in hippocampal slices which are maintained in a recording chamber continuously perfused with artificial cerebrospinal fluid (ACSF).
To conduct these tests, the hippocampus was removed from anesthetized, 2 month old Sprague-Dawley rats and in vitro slices (400 micrometers thick) were prepared and maintained in an interface chamber at 35° C. using conventional techniques [see, for example, Dunwiddie and Lynch, J. Physiol. Vol. 276: 353-367 (1978)]. The chamber was constantly perfused at 0.5 ml/min with ACSF containing (in mM): NaCl 124, KCl 3, KH2PO4 1.25, MgSO4 2.5, CaCl2 3.4, NaHCO3 26, glucose 10 and L-ascorbate 2. A bipolar nichrome stimulating electrode was positioned in the dendritic layer (stratum radiatum) of the hippocampal subfield CA1 close to the border of subfield CA3.
Current pulses (0.1 msec) through the stimulating electrode activate a population of the Schaffer-commissural (SC) fibers which arise from neurons in the subdivision CA3 and terminate in synapses on the dendrites of CA1 neurons. Activation of these synapses causes them to release the transmitter glutamate. Glutamate binds to the post-synaptic AMPA receptors which then transiently open an associated ion channel and permit a sodium current to enter the postsynaptic cell. This current results in a voltage in the extracellular space (the field excitatory post-synaptic potential or field “EPSP”) which is recorded by a high impedance recording electrode positioned in the middle of the stratum radiatum of CA1.
For the experiments summarized in FIG. 1, the intensity of the stimulation current was adjusted to produce half-maximal EPSPs (typically about 1.5-2.0 mV). Paired stimulation pulses were given every 40 sec with an interpulse interval of 200 msec (see below). The field EPSPs of the second response were digitized and analyzed to determine amplitude, half-width, and response area. If the responses were stable for 15-30 minutes (baseline), test compounds were added to the perfusion lines for a period of about 15 minutes. The perfusion was then changed back to regular ACSF.
Paired-pulse stimulation was used since stimulation of the SC fibers, in part, activates interneurons which generate an inhibitory postsynaptic potential (IPSP) in the pyramidal cells of CA1. This feed forward IPSP typically sets in after the EPSP reaches its peak. It accelerates the repolarization and shortens the decay phase of the EPSP, and thus could partially mask the effects of the test compounds. One of the relevant features of the feed-forward IPSP is that it can not be reactivated for several hundred milliseconds following a stimulation pulse. This phenomenon can be employed to advantage to eliminate IPSP by delivering paired pulses separated by 200 milliseconds and using the second (“primed”) response for data analysis.
The variables set forth in the table refer to the following generic structure: […]

AMPA receptors [4] = test: long-term potentiation (theta burst stimulation) in CA1 field of hippocampal slices; format: cell-based, rat; settings: 1.5 mM infused 15 minutes prior to theta burst stimulation; five experiments; p<0.02
Procedure: Long-term potentiation (LTP; a stable increase in the EPSP size of single responses after brief periods of high frequency stimulation) was elicited in the CA1 field of hippocampal slices in the absence (see FIG. 3, stippled bars, N=6) and in the presence of 1.5 mM of Invention Compound I (see FIG. 3, striped bars, N=5). In the latter case, the amount of potentiation was determined after washing out the test compound and comparing the response size with that before test compound infusion. Data presented in FIG. 3 show the percent increase in the EPSP amplitude (mean and S.D.) at 40, 60, and 90 minutes after LTP induction.
For these studies, field EPSPs in slices of hippocampus were elicited by single stimulation pulses and recorded by extracellular electrodes as described in Example II. After collecting responses every 40 seconds for 20-30 minutes to establish a baseline, LTP was induced with ten short bursts of pulses delivered to the CA3 axons; each burst consisted of four pulses separated by 10 milliseconds; the interval between the bursts was 200 milliseconds. This pattern of axon stimulation mimics a discharge rhythm observed in the hippocampus of animals engaged in learning and is referred to as the “theta burst stimulation paradigm” [see, for example, Larson and Lynch in Science Vol. 232: 985-988 (1986)]. […]

AMPA receptor [5] = format: in vivo, rat; settings: 120-180 mg/kg i.p.
Procedure: Stimulating and recording electrodes were placed in the hippocampus of anesthetized rats so as to activate and monitor the same synaptic responses as in the slice studies described in Example XV. […] The time constant for the decay of the EPSP is a measure for the duration of the response.
In these experiments, male Sprague-Dawley rats were anesthetized with urethane (1.7 g/kg) and body temperature was maintained at 37° C. with the use of a heat lamp. A stimulation electrode (two twisted stainless steel wires, 150 μm diameter, insulated with teflon) was placed stereotaxically in the trajectory of the Schaffer collateral (SC) pathway from CA3 to CA1 of the hippocampus (coordinates relative to Bregma: 3.5 mm P., 3.5 mm L., and 3.0-3.7 mm V). […]
Negative field potentials reflecting dendritic EPSPs evoked by SC stimulation (0.1 ms pulses, 10-100 μA) with paired pulses (inter-pulse interval of 200 msec; see methodology described in Example XV) were amplified 500 times and digitized by computer at 20 sec intervals throughout each experiment. […] Decay time constants were determined by single exponential fits to the decay phase of the synaptic response and expressed as a percent of the value obtained during the pre-injection control period.

In the case of `COc1ccc(C(=O)N2CC[C@@H](O)C2=O)cc1` [AHP, (R)-1-p-anisoyl-3-hydroxy-2-pyrrolidinone], the “facilitation of AMPA receptor mediated responses in slices” value (AMPA receptor [1]; nootropics tested in slices) is listed as “facilitate AMPA receptor mediated responses”.
With `O=C(c1ccc2c(c1)OCO2)N1CCCCC1` [Compound II, 1-(1,3-benzodioxol-5-ylcarbonyl)-piperidine] the “brain distribution relative to head excluding the cranial cavity” value [2] was “approximately equal”, the “brain distribution relative to heart” value [2] was “two-thirds” and the “brain distribution relative to liver” value [2] was “approximately one-quarter”. For the same compound, the “passage of the blood-brain barrier” value [2] was “passes freely through the blood-brain barrier” and the “time to plateau of brain uptake” value [2] was 5 to 10 min.
Compound `O=C(c1ccc2ncoc2c1)N1CC=CCC1` [Compound IX, 1-(1,3-benzoxazol-6-ylcarbonyl)-1,2,3,6-tetrahydodyridine] has a pEC50 (AMPA receptors [3]) of 2.40.
With `O=C(c1ccc2c(c1)OCCO2)N1CC=CCC1` [Compound I] the “degree of stable long-term potentiation versus stimulation in absence of drug” value (AMPA receptors [4]) was “nearly twice as large”, the “time within which the effect reversed after injection” value (AMPA receptor [5]) was 60 to 120 min and the “effect on duration (decay time constant) of synaptic response” value (AMPA receptor [5]; anesthetized rats, n=8) was “rapid increase in the duration of the synaptic response”. The “fold greater increase in the response area than aniracetam” value (AMPA receptors [3]; 750 μM) was “nine-fold”, the “effect on synaptic response compared with aniracetam” value (AMPA receptors [3]; 750 μM versus aniracetam 1500 μM, 15 minute infusion) was “much larger effect” and the “reversibility of effect upon washout” value (AMPA receptors [3]; after 15 minute infusion) was “fully reversible upon washout”. The “times greater effect on response area than aniracetam at the same concentrations” value (AMPA receptors [3]; dosages in the range of 750 μM to 1.5 μM) was 6-9 times.
`O=C(c1cccc2c1OCCO2)N1CC=CC1` [Compound VIII, 1-(1,4-benzodioxan-5-ylcarbonyl)-3-pyrroline] gave a pEC50 (AMPA receptors [3]) of 2.52.
`O=C(c1ccc2ncoc2c1)N1CCCCC1` [Compound X, 1-(1,3-benzoxazol-6-ylcarbonyl)-piperidine] gave a pEC50 (AMPA receptors [3]) of 2.89.
`O=C(c1ccc2ocnc2c1)N1CC=CCC1` [Compound XI, 1-(1,3-benzoxazol-5-ylcarbonyl)-1,2,3,6-tetrahydropyridine] showed a pEC50 (AMPA receptors [3]) of 2.52.
Work on `O=C(c1ccc2nc[nH]c2c1)N1CCCCC1` [Compound XII, 1-(1,3-benzimidazol-5-ylcarbonyl)-piperidine] yielded a pEC50 (AMPA receptors [3]) of 2.30.
For `COc1ccc(C(=O)NCCCC(=O)O)cc1` [anisoyl-GABA], the aniracetam-like effects (AMPA receptor [1]) is listed as “no aniracetam-like effects”.
